Data taken from patent US8318708B2, “Use of vitamin D receptor agonists, ligands, and precursors to treat pancreatic fibrosis” (Salk Institute for Biological Studies, priority 2007, dated 2012).

Experiments:
[1] = molecular target: T1, VDR (Homo sapiens, UniProt P11473); assay: Real-time qPCR of CYP24A1 in human LX-2 cell line; type: cell-based; conditions: LX-2 cells overnight; 1,α25(OH)2D3 1 nM, TGF β1 100 pM
T1 construct: endogenous in cells; host or cells: human LX-2 hepatic stellate cell line
T1 sequence (P11473 1-427): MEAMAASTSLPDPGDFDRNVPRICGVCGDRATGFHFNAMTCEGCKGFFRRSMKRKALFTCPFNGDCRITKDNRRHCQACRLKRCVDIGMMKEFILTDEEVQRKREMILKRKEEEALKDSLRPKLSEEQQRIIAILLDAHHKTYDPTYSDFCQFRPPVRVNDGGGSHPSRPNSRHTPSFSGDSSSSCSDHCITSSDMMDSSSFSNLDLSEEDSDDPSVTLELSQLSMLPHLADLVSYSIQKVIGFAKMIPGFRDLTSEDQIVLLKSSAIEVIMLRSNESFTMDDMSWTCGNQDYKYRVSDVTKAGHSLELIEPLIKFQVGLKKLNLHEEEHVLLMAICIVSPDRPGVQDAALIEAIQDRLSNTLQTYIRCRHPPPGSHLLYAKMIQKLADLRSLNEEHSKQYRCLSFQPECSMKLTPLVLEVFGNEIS
Procedure: Human LX-2 cells were grown to 50% confluence in DMEM with 10% FBS in 6-Well plates.
For qRT-PCR, 500 ng of deoxyribonuclease-treated total RNA was reverse transcribed into cDNA using SuperScript™ III reverse transcriptase essentially as described by the manufacturer (Invitrogen). Quantification of gene of interest mRNA was performed using a Rotor-Gene, RG 6000 (Corbett Research). […] Human B2M primers were from Applied Biosystems.
TGFβ signaling is the key mediator in hepatic fibrogenesis, triggering the transition of HSCs into myofibroblast-like cells and thereby stimulating synthesis of ECM proteins. Thus, TGFβ1 is produced locally in the organ as part of the fibrotic process It has been previously reported that TGFB signaling can influence the activity of VDR-dependent genes, as depicted in (FIG. 8A). In this model, TGFβ activation results in SMAD3 phosphorylation, inducing its translocation into the nucleus where it associates with the ligand bound VDR complex. Phosphorylated SMAD3 acts as a co-activator in the VDR/vitaminD3 complex enhancing the transcriptional potential of VDR on target genes. To understand the interplay between TGFB and VDR signaling pathways, the effects of TGFβ on the well characterized VDR gene target Cyp24α1 were examined.

[2] = molecular target: T2, VDR (Rattus norvegicus, UniProt P13053); assay: QPCR of VDR, Cyp24a1 and Hnf4α mRNA in primary rat hepatocytes; type: cell-based; parameters: endogenous in cells; host or cells: primary rat hepatic stellate cells, sinusoidal endothelial cells, Kupffer cells and hepatocytes (Sprague-Dawley rats); conditions: 24 hours, TGF-β1 2 ng/mL, calcitriol 10 nM
T2 sequence (P13053 1-423): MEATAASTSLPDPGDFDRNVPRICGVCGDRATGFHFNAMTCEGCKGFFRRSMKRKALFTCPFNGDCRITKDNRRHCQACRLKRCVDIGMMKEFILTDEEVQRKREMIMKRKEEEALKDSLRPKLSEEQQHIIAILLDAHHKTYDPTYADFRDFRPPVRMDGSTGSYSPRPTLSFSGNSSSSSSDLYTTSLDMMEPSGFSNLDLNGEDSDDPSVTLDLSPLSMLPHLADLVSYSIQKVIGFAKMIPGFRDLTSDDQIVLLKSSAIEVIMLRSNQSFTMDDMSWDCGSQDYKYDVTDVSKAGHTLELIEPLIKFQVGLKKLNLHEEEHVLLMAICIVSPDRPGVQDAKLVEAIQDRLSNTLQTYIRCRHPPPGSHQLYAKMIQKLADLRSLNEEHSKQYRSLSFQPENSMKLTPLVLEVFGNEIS

[3] = test system: VDR; assay: Western blot of VDR in hepatocytes treated with TGF-β1; type: cell-based, rat; human; conditions: TGF-β1 2 ng/mL, 24 hours, FIG. 14
Procedure: Primary rat hepatocytes were isolated from Sprague-Dawley rats by collagenase in situ perfusion and plated on collagen in Williams E medium. The immortalized human hepatocyte (IHH) cell line was cultured in DMEM/F12+GlutaMax with insulin and dexamethasone. Primary rat hepatocytes or immortalized human hepatocytes were cultured for two days, then subsequently treated with TGF-β1 (2 ng/mL human, recombinant expressed in CHO cells from Sigma-Aldrich, # T7039) for 24 hours and compared to untreated controls. Protein was prepared from harvested cells and western blotting for VDR was accomplished using a specific anti-VDR antibody (anti-human VDR antibody from R&D systems CAT # PP-H4537-00 and rat anti-VDR monoclonal antibody from Chemocon International CAT # MAB1360). Recombinant human VDR protein was included as a positive control.

[4] = molecular target: T2, VDR; assay: Western blot of VDR in Kupffer cells (KCs); type: cell-based; parameters: endogenous in cells; host or cells: primary rat hepatic stellate cells, sinusoidal endothelial cells, Kupffer cells and hepatocytes (Sprague-Dawley rats); conditions: FIG. 10B
Text: Hepatic sinusoidal endothelial cells (SECs) and Kupffer cells (KCs) were elutriated from rat liver and maintained in cell culture.

[5] = test system: HSCs; conditions: rat HSCs 24 h; LPS 15 ng/ml, TGFβ 2 ng/ml, calcitriol 10 nM; control = 1
Procedure: (§1) For Illumina microarray analysis, Illumina TotalPrep RNA Amplification Kit (Ambion; Catalog # IL1791) was used with the manufacturer's instructions for the RNA amplification. […] Essentially, biotinylated cRNA was prepared according to the manufacturer's directions starting with 200 ng total RNA. Hybridization to the Illumina Sentrix RatRef-12 v.1 and Mouse RefSeq version 2 Expression BeadChips (Illumina, Inc., San Diego, Calif.), washing and scanning were performed according to the Illumina BeadStation 500× manual (revision C). […] RNA is isolated using Trizol and the quality/integrity of the total RNA verified using a Bioanalyzer (Agilent).
(§2) Microarray experiments were repeated two times with RNA from two experiments where HSCs were isolated from two different rats and for each condition triplicate samples were used. The “Detection Score” was used to determine expression using the Illumina platform. It is a statistical measure in the BeadStudio software (version 1.5.0.34), which is computed based on the Z-value of a gene relative to the Z-value of the negative controls. The Illumina data were adjusted (“normalized”) using a cubic spline function. […] The expression difference score, DiffScore, takes into account background noise and sample variability. […] Illumina expression arrays utilize gene-specific 50-mer oligonucleotide probes with an average of 30 replicates of each probe bead per individual array.
Two different HSCs from different rats were used for the lumina microarray analysis. […] Values are expressed as fold change relative to control cells treated with vehicle alone.

[6] = test system: primary HSCs; assay: Illumina array: TGFβ1-treated primary rat HSCs with vitamin D3 (Table 4); conditions: rat HSCs 24 h; TGFβ1 100 pM, vitamin D3 1 nM
Procedure: as §1, §2
The Illumina platform described above was used to identify genome-wide effects of vitamin D3-activated VDR on TGFβ signaling in primary rat HSCs. Isolated primary HSCs were cultured on plastic tissue culture plates for 40 hours prior to treatment with or without vitamin D3 (1 nM) in the presence or absence of TGFβ1 (100 pM) for 24 hours. Cells were then harvested, total RNA extracted, and biotin labeled cRNA was prepared for hybridization to an Illumina Rat RefSeq version 1 genome array. […] The data generated from these arrays was processed using Illumina BeadStudio software to identify gene expression changes between the different samples. The vitamin D3 mediated changes on TGFβ1 signaling were identified by comparing TGFβ1 and co-treated TGFβ1/vitamin D3 samples.

In the case of “TGF-β1: transforming growth factor beta 1; human recombinant from Sigma-Aldrich T7039”, the “CYP24a1 gene expression (QPCR, normalized to 36B4)” value [1] is reported as “no effect”, the “Cyp24a1 mRNA expression” value [2] is reported as “no effect” and the HNF4α expression [2] is reported as “some increase”. For the same substance, the “VDR mRNA expression” value [2] was “capable of inducing”, the “Increase in VDR expression (western blot)” value [3] was “at least 5 fold” and the VDR protein expression [4] was “induced”. For the same substance, the Ccl5 gene expression [5] was 0.957 fold change, the Ccl12 gene expression [5] was 1.167 fold change and the Ccl20 gene expression [5] was 0.999 fold change. For the same substance, the Col1a1 gene expression [5] was 3.014 fold change, the Col1a2 gene expression [5] was 2.256 fold change and the Col3a1 gene expression [5] was 1.878 fold change. The Col5a1 gene expression [5] was 2.322 fold change, the Col5a2 gene expression [5] was 1.583 fold change and the Col6a3 gene expression [5] was 1.611 fold change. It also gave a Col8a1 gene expression [5] of 2.240 fold change, a Csf2 gene expression [5] of 0.803 fold change and a Ctgf gene expression [5] of 1.919 fold change. For the same substance, the Cx3cl1 gene expression [5] was 0.864 fold change, the Cxcl5 gene expression [5] was 0.971 fold change and the Cxcl9 gene expression [5] was 0.875 fold change. It also gave a Cxcl11 gene expression [5] of 1.05 fold change, an Icam1 gene expression [5] of 1.371 fold change and an Il1a gene expression [5] of 0.517 fold change. It also gave an Il1b gene expression [5] of 0.322 fold change, an Il6 gene expression [5] of 0.791 fold change and an Il10 gene expression [5] of 0.837 fold change. It also gave a Mmp7 gene expression [5] of 1.692 fold change, a Mmp10 gene expression [5] of 1.856 fold change and a Mmp13 gene expression [5] of 1.342 fold change. It also gave a Smad2 gene expression [5] of 1.381 fold change, a Smad3 gene expression [5] of 1.116 fold change and a Smad4 gene expression [5] of 1.325 fold change. It also gave a Tgfb1 gene expression [5] of 1.502 fold change, a Tgfbr1 gene expression [5] of 1.317 fold change and a Timp1 gene expression [5] of 1.026 fold change. It also gave a Timp2 gene expression [5] of 1.823 fold change, a Tlr2 gene expression [5] of 1.092 fold change and a Tlr4 gene expression [5] of 1.349 fold change. For the same substance, the Tnf gene expression [5] was 1.078 fold change, the Tnfrsf5 gene expression [5] was 1.339 fold change and the Tnfrsf14 gene expression [5] was 1.373 fold change. The Vcam1 gene expression [5] was 1.482 fold change, the Mmp10 gene change [6] was “↓” and the Mmp13 gene change [6] was “N/C”.
